Data from patent US10421973B2, “Chemically inducible cucumber mosaic virus protein expression system” (THE REGENTS OF THE UNIVERSITY OF CALIFORNIA, priority 2006, dated 2019).
Several values for one entry are separate records, joined by “and”; a condition that tells them apart may be missing. Equal values may be shown once. Read-outs that look alike come from different tables or passages of the source. Where a SMILES comes first, the peptide text is derived from it. Bridges are numbered along the chain shown (N, C = ends). [ ]: non-standard residue; d: D form. The star is where a group is joined. Ileψ(thiazoline)Cys = CC[C@H](C)[C@H](N)C1=N[C@H](C(=O)*)CS1; dOrn = NCCC[C@@H](N)C(=O)O

How the values were obtained:
N. benthamiana leaves = assay: Induction method study, total rAAT ELISA in intact or detached N. benthamiana leaves (CMViva + p19); format: in vivo, Nicotiana benthamiana
Procedure: (§1) Non-transgenic/wildtype N. benthamiana seedlings were grown from seed in soil-filled 10-cm pots. Seedlings were transplanted to individual 10-cm pots until plants were 10 to 15 cm in height, at which time plants were ready for infiltration. All plants were grown in a greenhouse with a 16-hour photoperiod and a temperature range of 18° C. (nighttime low) to 30° C. (daytime high). To prepare for evaluation of protein expression in detached leaves, plant leaves were cut at the petiole and stored dry in unsealed plastic bags for one hour before infiltration to simulate a situation where plants would be harvested from a field and transported to a facility for infiltration.
(§2) A. tumefaciens cells containing the appropriate plasmids were grown for 24 hours in 2 mL of Luria-Bertani (LB) broth containing appropriate selection antibiotics. Approximately 0.5 mL was then transferred to 25 mL of LB broth supplemented with 10 μL of 100 mM acetosyringone (3′, 5′-dimethoxy-4′-hydroxyacetophenone) (Aldrich Chemicals, Milwaukee, Wis.) and 0.5 ml of 1 M 2-(4-morpholino) ethanesulfonic acid (MES) buffer (pH 5.6), and grown overnight at 28° C. with shaking until the cell density (optical density, OD600) reached 1.0 absorbance units. Cells were harvested by centrifugation at 2600 g, resuspended in 10 mL of sterile de-ionized water, and the cell density was adjusted to 1.0 absorbance units. Five milliliters of the A. tumefaciens cell suspension for CMViva was mixed with 5 mL of A. tumefaciens cells containing the p35S:p19 plasmid, and then supplemented with magnesium chloride to reach a final concentration of 10 mM and acetosyringone to 150 µM, and incubated at room temperature for five hours. Bacterial suspensions were then pressure infiltrated onto the abaxial side of either intact or detached N. benthamiana leaves using a 3-mL sterile syringe without a needle at three to four points to sufficiently cover the entire leaf (approximately 1 mL of bacterial suspension per 0.5 g fresh weight of tissue). No A. tumefaciens solution was applied to plants selected as healthy control plants.
(§3) Intact plants that had been infiltrated were grown in the greenhouse for the duration of the experiment. Leaves that had been detached were stored in a humidity chamber following infiltration to maintain the health of the plant material. The humidity chamber was prepared by soaking 400 g of Perlite soil additive (E.B. Stone) in 1.5 L of de-ionized water. Excess water was decanted and the saturated Perlite was packed to form a 3-cm thick bed on the bottom of an 11.4 L rectangular Tupperware container. Plant leaves were then placed 7 cm above the Perlite bed on top of racks, and the chamber was then sealed and placed in the dark at 21° C. The humidity chamber was prepared five hours before infiltration to ensure a humid environment upon introduction of the plant leaves.
(§4) Twelve hours after infiltration, an induction solution composed of 50 μM 17-β-estradiol (Sigma Inc., St. Louis, Mo.) in 0.05% Tween 20 was applied to all infiltrated N. benthamiana leaves using either cotton tipped applicators to both sides of the leaves or a 3-mL sterile syringe without a needle pressure injected onto the abaxial side of the leaves. To evaluate the effect of multiple inducer applications, the induction solution was applied to half of the total number of infiltrated leaves in the same manner (directly after sampling) at 2-day (48±1 h) increments after the initial induction. No inducer solution was applied at any time to the healthy control plants.
(§5) Plant leaves were sampled on the infiltrated/induced areas 2 days (48±1 h) post-induction (60±1 h post-infiltration) by collecting two 7-mm diameter discs at various locations on each leaf and combining the discs to approximate an average leaf sample. Three leaves from different plants were sampled for analysis of intact plant leaves and four leaves were used for analysis of detached plant leaves. […]

[1] = system: porcine pancreatic elastase (PPE); assay: Induction method study, functional rAAT ELISA in intact or detached N. benthamiana leaves (CMViva + p19); format: biochemical
Procedure: as §1, §2, §3, §4, §5

[2] = system: proteases in the cell cultured medium; assay: Effect of protease inhibitors and additives on human AAT degradation in cell-free CMViva conditioned medium; format: biochemical, Nicotiana benthamiana
Procedure: For the investigation of human AAT stability in plant cell cultures, human AAT was added to the cell-free conditioned medium to a final concentration of 2 mg/L and distributed into 6-well-plates. The cell-free conditioned medium was prepared by centrifuging and filtering (through a 0.22 μm filter) the plant cells from 7 day old CMViva cell cultures (pH 5.1). Various protease inhibitors including 2-mercaptoethylamine-HCl (aminopeptidase inhibitor), AEBSF (serine and cysteine proteases inhibitor), benzamidine-HCl (serine protease inhibitor), and EDTA (a metal ion chelator and metalloproteinase inhibitor) were added to the conditioned medium to a final concentration of 10 mM to assess their ability to retard the degradation of human AAT. In another treatment, the conditioned medium was also heated (in boiling water for 30 minutes) or the medium pH was adjusted (from original pH 5.1 to 6.4˜6.6) prior to the addition of human AAT to investigate the human AAT stability. The 6-well-plates containing human AAT in various conditioned medium (4 mL/well) were incubated on an orbital shaker at 140 rpm and 25[…] under ambient light. Samples were taken daily and stored at −80° for further ELISA, western blotting and band shift analysis.

[3] = system: transgenic plant cell cultures; assay: Effect of stabilizing agents and protease inhibitors on rAAT production in transgenic plant cell cultures; format: cell-based, Nicotiana benthamiana
Procedure: The effect of stabilizing agents (bacitracin, PVP, BSA, Pluronic F-68, and mannitol) and protease inhibitors (2-mercaptoethylamine-HCl, AEBSF, benzamidine-HCl and EDTA) on the rAAT production in transgenic plant cell cultures was also evaluated.

[4] = system: CMViva inducible cell cultures; assay: Effect of inducer concentration on rAAT production, CMViva inducible cell cultures; format: cell-based, Nicotiana benthamiana
Procedure: (§6) The inducer, 17-beta-estradiol, dissolved in DMSO, was added to cultures of XVE and CMViva transgenic cell lines at a specific time after inoculation to start induction. The final concentration of DMSO was not higher than 0.3%.
(§7) For inducible systems, the correct inducer concentration and timing of application are critical to maximize recombinant protein expression. Two inducible expression systems were evaluated for rAAT protein production. The concentration of inducer (COI) required for inducing maximum rAAT production and the close-response of inducible plant cell cultures were determined. Inducer was added to the XVE and CMViva cell suspensions 10 days after inoculation (100 mL cell culture in a 250 mL Erlenmeyer flask, 140 rpm and 25° C. under ambient light) to a final concentration of 0, 0.1, 0.5, 1, 2.5, 5, 10, 25, 50 or 100 μM. Samples were harvested 8 days after induction and total and functional extracellular rAAT were determined by ELISA (FIG. 8). In the absence of inducer, rAAT was not detected in XVE or CMViva cultures. There was a dose-dependent response in rAAT expression in XVE and CMViva cell cultures with added inducer, and both inducible systems allowed regulation of rAAT expression at inducer concentrations between 0.1 and 10 μM. Above approximately 10 μM estradiol, rAAT production leveled off in both XVE and CMViva systems. The CMViva system first responded at 0.1 μM while XVE required 2.5 μM. Higher extracellular rAAT productivity was produced in CMViva at a relatively low inducer concentration (0.5 μM) compared with that in XVE system (5 μM) and CMViva produced more functional rAAT at all inducer concentrations.

[5] = system: XVE inducible cell cultures; assay: Effect of inducer concentration on rAAT production, XVE inducible cell cultures; format: cell-based, Nicotiana benthamiana
Procedure: as §6
as §7, with “The CMViva system first responded at 0.1 μM while XVE required 2.5 μM. Higher extracellular rAAT productivity was produced in CMViva at a relatively low inducer concentration (0.5 μM) compared with that in XVE system (5 μM) and CMViva produced more functional rAAT at all inducer concentrations.” left out

N. benthamiana cultures = assay: Effects of estradiol on N. benthamiana cultures (toxicity, growth); format: cell-based, Nicotiana benthamiana; conditions: at up to 100 μM
Procedure: as §7, with “Higher extracellular rAAT productivity was produced in CMViva at a relatively low inducer concentration (0.5 μM) compared with that in XVE system (5 μM) and CMViva produced more functional rAAT at all inducer concentrations.” left out

XVE system = conditions: cited from earlier work
[6] = system: viral amplicon plant cell cultures; conditions: cited from earlier work
[7] = detached leaves, single pressure injection
[8] = intact leaves, single pressure injection
[9] = intact leaves, single topical application, four days after induction
[10] = transgenic plant cell cultures, data not shown
[11] = inducer added 10 days after inoculation, sampled 8 days after induction

rAAT: recombinant α1-antitrypsin, a human blood protein, produced in N. benthamiana
maximum total rAAT (N. benthamiana leaves; detached leaves, multiple topical applications): 3.5±0.15 % of TSP | total rAAT (N. benthamiana leaves; [7]): 2.4±0.18 % of TSP | maximum total rAAT (N. benthamiana leaves; detached leaves, single topical application): 2.5±0.08 % of TSP | maximum total rAAT (N. benthamiana leaves; intact leaves, multiple pressure injections, 6 days after induction): 5.8±0.46 % of TSP | increase of total rAAT, multiple compared to single treatment (N. benthamiana leaves; intact leaves, pressure injection): 57% | total rAAT (N. benthamiana leaves; [8]): 3.7±0.31 % of TSP | total rAAT (N. benthamiana leaves; [9]): 1.4±0.17 % of TSP | maximum total rAAT (N. benthamiana leaves; intact leaves, single topical application, six days after induction): 1.9±0.15 % of TSP | increase of total rAAT, multiple compared to single treatment (N. benthamiana leaves; intact leaves, topical application): 120% | more total rAAT, single pressure injection compared to single topical application (N. benthamiana leaves; intact plants): 95% | maximum total rAAT in detached leaves above that in intact leaves (N. benthamiana leaves; single topical application): 0.6 % of TSP | functional rAAT higher with single pressure injection than single topical application ([1]; detached leaves): 80% | increase of maximum functional rAAT, inducer applied topically every two days ([1]; detached leaves): 1.8 fold | maximum percentage of functional rAAT to total rAAT ([1]; detached leaves, injection method, two days after induction): 85-87% | functional rAAT ([1]; detached leaves, multiple topical applications, four days post induction): 1.3±0.05 % of TSP | functional rAAT [1, 7]: 1.3±0.06 % of TSP | functional rAAT ([1]; detached leaves, single topical application, four days post induction): 0.71±0.04 % of TSP | maximum percentage of functional rAAT to total rAAT ([1]; detached leaves, topical application, two days after induction): 55-65% | increase of maximum functional rAAT, multiple pressure injections compared to single topical application ([1]; intact leaves): up to 3 fold | percentage of total rAAT that is functional ([1]; intact leaves, eighth day after induction, any of the treatments): less than 15% | maximum functional rAAT ([1]; intact leaves, multiple pressure injections): 2.4±0.09 % of TSP | maximum functional rAAT ([1]; intact leaves, multiple topical applications): 1.6±0.08 % of TSP | percentage of total rAAT that is functional ([1]; intact leaves, pressure injection, two days after induction): 83-90% and > 85% | maximum functional rAAT [1, 8]: 1.8±0.09 % of TSP | maximum functional rAAT [1, 9]: 0.80±0.04 % of TSP | functional rAAT still present as % of the maximum level ([1]; intact leaves, six days after induction, single induction treatment): less than 40% | more functional rAAT, single pressure injection compared to single topical application ([1]; intact plants): 125% | functional rAAT in detached leaves less than in intact leaves ([1]; multiple topical applications, four days post induction): 0.3 % of TSP | functional rAAT in detached leaves less than in intact leaves ([1]; single topical application, four days post induction): 0.09 % of TSP

CC[C@H](C)[C@H](N)C1=N[C@H](C(=O)N[C@@H](CC(C)C)C(=O)N[C@H](CCC(=O)O)C(=O)N[C@H](C(=O)N[C@H]2CCCCNC(=O)[C@H](CC(N)=O)NC(=O)[C@@H](CC(=O)O)NC(=O)[C@H](Cc3cnc[nH]3)NC(=O)[C@@H](Cc3ccccc3)NC(=O)[C@H]([C@@H](C)CC)NC(=O)[C@@H](CCCN)NC2=O)[C@@H](C)CC)CS1 [bacitracin] ({Ileψ(thiazoline)Cys}-L[dE]IK[dOrn]I[dF]H[dD]N; lactam 4-C)
effect of medium additive on stabilizing functional human AAT ([2]; cell-free conditioned medium, data not shown): did not show significant effect | effect on total and functional rAAT production [3, 10]: no significant improvement

Cl.NCCS [2-mercaptoethylamine-HCl]
effect of protease inhibitor on human AAT degradation ([2]; 10 mM in 7 day old cell-free CMViva conditioned medium): slightly inhibit human AAT degradation | effect on total and functional rAAT production [3, 10]: no significant improvement

C[C@]12CC[C@@H]3c4ccc(O)cc4CC[C@H]3[C@@H]1CC[C@@H]2O [estradiol, 17-β-estradiol]
inducer concentration giving higher extracellular rAAT productivity ([4]; flask cultures): 0.5 µM | estradiol concentration at which the system first responded (detectable rAAT) [4, 11]: 0.1 µM | lowest estradiol concentration with detectable rAAT expression ([4]; lowest concentration tested): 100 nM | inducer concentration giving higher extracellular rAAT productivity ([5]; flask cultures): 5 µM | estradiol concentration at which the system first responded (detectable rAAT) [5, 11]: 2.5 µM | detrimental, toxic or growth-inhibiting effects on cultures (N. benthamiana cultures): no obvious detrimental, toxic, or growth-inhibiting effects | estradiol concentration giving detectable GFP transcripts (XVE system; plants, XVE system): 8 nM | estradiol concentration at saturation of GFP transcripts (XVE system; whole plants): around 5 μM | estradiol concentration giving GFP fluorescence ([6]; viral amplicon plant cell cultures): 10 nM | estradiol concentration at saturation of GFP fluorescence ([6]; viral amplicon system in plant cell culture): 0.1 to 1 µM

O=C(O)CN(CCN(CC(=O)O)CC(=O)O)CC(=O)O [EDTA]
effect on total and functional rAAT production [3]: no significant improvement
